Values quoted from earlier work, collected in patent US20130266557A1, “METHODS FOR TREATMENT OF A SARCOMA USING AN EPIMETABOLIC SHIFTER (COENZYME Q10)” (priority 2009, published 2013).

System: cancer
Settings: Mazzio 2006; cited from earlier work

## COC1=C(OC)C(=O)C(C)=CC1=O [DMBQ, 2,3-dimethoxy-5-methyl-1,4-benzoquinone, reference compound]
  Potency as an anti-cancer agent relative to CoQ10: > 1000 times
